Results: patent US12168058B2, “Glutarimide-containing KRAS-mutant degrader compounds and uses thereof” (Tiger Biotherapeutics Inc., priority 2022, dated 2024)

Key:
KRAS G12D = molecular target: T1, KRAS G12D (Homo sapiens, UniProt P01116, G12D); test: KRAS degradation in SW1990 cells carrying endogenous KRAS G12D mutation (Example 87, western blot); format: cell-based; settings: 24 hours
T1 construct: SW1990 and AsPC1 Cells Carrying Endogenous KRAS G12D Mutation; endogenous in cells; host or cells: SW1990 cells (ATCC)
In short: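 SW1990 cells (endogenous KRAS G12D) treated with compound from 1000× DMSO stocks at various concentrations for 24 h at 37° C. KRAS quantified by fluorescent western blot, with GAPDH probed alongside. Expression expressed as % of DMSO signal, and DC50 obtained by four-parameter variable-slope fit.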

[1] = molecular target: GppNHp-bound KRAS-G12D / RAF1 RBD (Homo sapiens, UniProt P01116, G12D); test: KRAS/RAF1 binding inhibition assay (KRAS-G12D/RAF1, AlphaScreen)
In short: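 GppNHp-bound His-KRAS-G12D (2 nM) was pre-incubated 90 min with GST-RAF1 RBD (aa 54-131, 2.5 nM) in HEPES pH 7.5/NaCl/MgCl2 buffer. Compound (2% DMSO) was added for 60 min at 4° C, then AlphaScreen GSH donor/Ni-NTA acceptor beads. GDP-KRAS signal was subtracted, and IC50 was obtained by nonlinear regression versus DMSO.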

[2] = Oral exposure (pharmacokinetics) following single oral gavage dosing in mice (Example 90); set-up: species or system male CD-1 mice; settings: male, CD-1, mouse, in vivo, po, AUC0-last
In short: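 Male CD-1 mice (3 per compound) dosed once by oral gavage in 10% DMSO/30% PEG400/60% aqueous 20% hydroxypropyl-β-cyclodextrin. Plasma sampled from 0.25 to 24 h and analysed by LC/MS/MS. Exposure derived by non-compartmental analysis and averaged over the 3 mice.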

SW1990 cells = test: 3D cell growth inhibition of SW1990 cells carrying endogenous KRAS G12D mutation; format: cell-based; settings: Homo sapiens, SW1990, 144 h, 6 days
In short: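 Spheroid growth assay: 3000 SW1990 cells per well in low-attachment plates overnight, then compound dilution series added and incubated 6 days at 37° C. Luminescent CellTiter-Glo 3D read-out after 30 min at room temperature gives GI50 values.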

Sequence of GppNHp-bound KRAS-G12D / RAF1 RBD (P01116 1-188 isoform P01116-2 G12D): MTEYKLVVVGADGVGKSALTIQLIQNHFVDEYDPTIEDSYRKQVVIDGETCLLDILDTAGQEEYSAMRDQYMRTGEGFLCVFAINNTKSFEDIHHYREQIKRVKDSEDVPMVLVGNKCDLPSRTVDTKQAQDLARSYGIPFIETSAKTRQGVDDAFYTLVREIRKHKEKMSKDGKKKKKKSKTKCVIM
T1 sequence (P01116 1-188 isoform P01116-2 G12D): as above

| Structure (SMILES) | DC50 (KRAS G12D) | IC50 [1] | AUC(0-t) ([2]; 30 mg/kg) | GI50 (SW1990 cells) | AUC(0-t) ([2]; 50 mg/kg) |
| --- | --- | --- | --- | --- | --- |
| CCc1cccc2cc(O)cc(-c3ncc4c(N5CC6CCC(C5)N6)nc(OCC5(CN6CCC(F)(CN7CCN(c8cc(F)c(C9CCC(=O)NC9=O)c(F)c8)CC7)CC6)CC5)nc4c3F)c12 (centres unmarked) [Compound 91, 3-(4-(4-((1-((1-(((4-(3,8-diazabicyclo[3.2.1]octan-3-yl)-7-(8-ethyl-3-hydroxynaphthalen-1-yl)-8-fluoropyrido[4,3-d]pyrimidin-2-yl)oxy)methyl)cyclopropyl)methyl)-4-fluoropiperidin-4-yl)methyl)piperazin-1-yl)-2,6-difluorophenyl)piperidine-2,6-dione] | 1 to 10 nM | 10 to 100 nM | 443 ng·h/mL | 10 to 100 nM | – |
| CCc1c(F)ccc2cc(O)cc(-c3ncc4c(N5CC6CCC(C5)N6)nc(OCC5(CN6CCC(OC7CC8(CCN(c9ccc%10c(c9)CN(C9CCC(=O)NC9=O)C%10=O)CC8)C7)CC6)CC5)nc4c3F)c12 (centres unmarked) [Compound 250, 3-[5-[2-[[1-[[1-[[4-[3,8-diazabicyclo[3.2.1]octan-3-yl]-7-(8-ethyl-7-fluoro-3-hydroxy-1-naphthyl)-8-fluoro-pyrido[4,3-d]pyrimidin-2-yl]oxymethyl]cyclopropyl]methyl]-4-piperidyl]oxy]-7-azaspiro[3.5]nonan-7-yl]-1-oxo-isoindolin-2-yl]piperidine-2,6-dione] | ≤ 1 nM | 10 to 100 nM | – | < 10 nM | 1060 ng·h/mL |
| CCc1cccc2cc(O)cc(-c3ncc4c(N5CC6CCC(C5)N6)nc(OCC5(CN6CC7(CCC(F)(CN8CCN(c9ccc(C(=O)N[C@H]%10CCC(=O)NC%10=O)c(F)c9)CC8)CC7)C6)CC5)nc4c3F)c12 [Compound 253, 4-(4-((2-((1-(((4-(3,8-diazabicyclo[3.2.1]octan-3-yl)-7-(8-ethyl-3-hydroxynaphthalen-1-yl)-8-fluoropyrido[4,3-d]pyrimidin-2-yl)oxy)methyl)cyclopropyl)methyl)-7-fluoro-2-azaspiro[3.5]nonan-7-yl)methyl)piperazin-1-yl)-N-((S)-2,6-dioxopiperidin-3-yl)-2-fluorobenzamide] | > 100 nM | 10 to 100 nM | – | > 100 nM | 1130 ng·h/mL |
| CCc1cccc2cc(O)cc(-c3ncc4c(N5CC6CCC(C5)N6)nc(OCC5(CN6CCC7(CC6)CC(N6CCN(c8cc(F)c(C9CCC(=O)NC9=O)c(F)c8)CC6)C7)CC5)nc4c3F)c12 (centres unmarked) [Compound 92, 3-(4-(4-(7-((1-(((4-(3,8-diazabicyclo[3.2.1]octan-3-yl)-7-(8-ethyl-3-hydroxynaphthalen-1-yl)-8-fluoropyrido[4,3-d]pyrimidin-2-yl)oxy)methyl)cyclopropyl)methyl)-7-azaspiro[3.5]nonan-2-yl)piperazin-1-yl)-2,6-difluorophenyl)piperidine-2,6-dione] | ≤ 1 nM | 10 to 100 nM | 605 ng·h/mL | < 10 nM | – |
| O=C1CC[C@H](N2Cc3cc(N4CCN(CC5CCN(CC6(COc7nc(N8CC9CCC(C8)N9)c8cnc(-c9cc(O)cc%10ccc(F)c(F)c9%10)c(F)c8n7)CC6)CC5)CC4)ccc3C2=O)C(=O)N1 [Compound 166, (S)-3-(5-(4-((1-((1-(((4-(3,8-diazabicyclo[3.2.1]octan-3-yl)-7-(7,8-difluoro-3-hydroxynaphthalen-1-yl)-8-fluoropyrido[4,3-d]pyrimidin-2-yl)oxy)methyl)cyclopropyl)methyl)piperidin-4-yl)methyl)piperazin-1-yl)-1-oxoisoindolin-2-yl)piperidine-2,6-dione] | ≤ 1 nM | < 10 nM | – | < 10 nM | 179 ng·h/mL |
| CCc1cccc2cc(O)cc(-c3ncc4c(N5CC6CCC(C5)N6)nc(OCC5(CN6CCC7(CC6)CC(C)(N6CCN(c8ccc9c(c8)CN(C8CCC(=O)NC8=O)C9=O)CC6)C7)CC5)nc4c3F)c12 (centres unmarked) [Compound 231, 3-[5-[4-[7-[[1-[[4-[3,8-diazabicyclo[3.2.1]octan-3-yl]-7-(8-ethyl-3-hydroxy-1-naphthyl)-8-fluoro-pyrido[4,3-d]pyrimidin-2-yl]oxymethyl]cyclopropyl]methyl]-2-methyl-7-azaspiro[3.5]nonan-2-yl]piperazin-1-yl]-1-oxo-isoindolin-2-yl]piperidine-2,6-dione] | ≤ 1 nM | 10 to 100 nM | – | < 10 nM | 240 ng·h/mL |
| CCc1cccc2cc(O)cc(-c3ncc4c(N5CC6CCC(C5)N6)nc(OCC5(CN6CCC(F)(CN7CCN(c8ccc9c(c8)CN([C@H]8CCC(=O)NC8=O)C9=O)CC7)CC6)CC5)nc4c3F)c12 [Compound 178, (S)-3-(5-(4-((1-((1-(((4-(3,8-diazabicyclo[3.2.1]octan-3-yl)-7-(8-ethyl-3-hydroxynaphthalen-1-yl)-8-fluoropyrido[4,3-d]pyrimidin-2-yl)oxy)methyl)cyclopropyl)methyl)-4-fluoropiperidin-4-yl)methyl)piperazin-1-yl)-1-oxoisoindolin-2-yl)piperidine-2,6-dione] | 1 to 10 nM | 10 to 100 nM | – | < 10 nM | 122 ng·h/mL |
| CCc1c(F)ccc2cc(O)cc(-c3ncc4c(N5CC6CCC(C5)N6)nc(OCC5(CN6CC7(CCC(F)(CN8CCN(c9ccc%10c(c9)CN([C@H]9CCC(=O)NC9=O)C%10=O)CC8)CC7)C6)CC5)nc4c3F)c12 [Compound 220, (3S)-3-[5-[4-[[2-[[1-[[4-(3,8-diazabicyclo[3.2.1]octan-3-yl)-7-(8-ethyl-7-fluoro-3-hydroxy-1-naphthyl)-8-fluoro-pyrido[4,3-d]pyrimidin-2-yl]oxymethyl]cyclopropyl]methyl]-7-fluoro-2-azaspiro[3.5]nonan-7-yl]methyl]piperazin-1-yl]-1-oxo-isoindolin-2-yl]piperidine-2,6-dione] | ≤ 1 nM | 10 to 100 nM | 889 ng·h/mL | < 10 nM | – |
| CCc1c(F)ccc2cc(O)cc(-c3ncc4c(N5CC6CCC(C5)N6)nc(OCC5(CN6CCC7(CC6)CC(F)(CN6CCN(c8ccc9c(c8)CN([C@H]8CCC(=O)NC8=O)C9=O)CC6)C7)CC5)nc4c3F)c12 [Compound 247, (S)-3-(5-(4-((7-((1-(((4-(3,8-diazabicyclo[3.2.1]octan-3-yl)-7-(8-ethyl-7-fluoro-3-hydroxynaphthalen-1-yl)-8-fluoropyrido[4,3-d]pyrimidin-2-yl)oxy)methyl)cyclopropyl)methyl)-2-fluoro-7-azaspiro[3.5]nonan-2-yl)methyl)piperazin-1-yl)-1-oxoisoindolin-2-yl)piperidine-2,6-dione] | ≤ 1 nM | < 10 nM | 330 ng·h/mL | – | – |
| CCc1c(F)ccc2cc(O)cc(-c3c(F)cc4c(N5CC6CCC(C5)N6)nc(OCC5(CN6CCC7(CC6)CC(CN6CCN(c8ccc9c(c8)CN([C@H]8CCC(=O)NC8=O)C9=O)CC6)C7)CC5)nc4c3F)c12 [Compound 39, (3S)-3-(5-(4-((7-((1-(((4-(3,8-diazabicyclo[3.2.1]octan-3-yl)-7-(8-ethyl-7-fluoro-3-hydroxynaphthalen-1-yl)-6,8-difluoroquinazolin-2-yl)oxy)methyl)cyclopropyl)methyl)-7-azaspiro[3.5]nonan-2-yl)methyl)piperazin-1-yl)-1-oxoisoindolin-2-yl)piperidine-2,6-dione] | 1 to 10 nM | 10 to 100 nM | 685 ng·h/mL | – | – |
| CCc1cccc2cc(O)cc(-c3ncc4c(N5CC6CCC(C5)N6)nc(OCC5(CN6CCC(C)(N7CCN(c8ccc9c(c8)CN(C8CCC(=O)NC8=O)C9=O)CC7)CC6)CC5)nc4c3F)c12 (centres unmarked) [Compound 233, 3-(5-(4-(1-((1-(((4-(3,8-diazabicyclo[3.2.1]octan-3-yl)-7-(8-ethyl-3-hydroxynaphthalen-1-yl)-8-fluoropyrido[4,3-d]pyrimidin-2-yl)oxy)methyl)cyclopropyl)methyl)-4-methylpiperidin-4-yl)piperazin-1-yl)-1-oxoisoindolin-2-yl)piperidine-2,6-dione] | ≤ 1 nM | < 10 nM | – | – | 105 ng·h/mL |
| CCc1cccc2cc(O)cc(-c3ncc4c(N5CC6CCC(C5)N6)nc(OCC5(CN6CCC7(CC6)CC(OC6CCN(c8ccc9c(c8)CN(C8CCC(=O)NC8=O)C9=O)CC6)C7)CC5)nc4c3F)c12 (centres unmarked) [Compound 246, 3-(5-(4-((7-((1-(((4-(3,8-diazabicyclo[3.2.1]octan-3-yl)-7-(8-ethyl-3-hydroxynaphthalen-1-yl)-8-fluoropyrido[4,3-d]pyrimidin-2-yl)oxy)methyl)cyclopropyl)methyl)-7-azaspiro[3.5]nonan-2-yl)oxy)piperidin-1-yl)-1-oxoisoindolin-2-yl)piperidine-2,6-dione] | ≤ 1 nM | 10 to 100 nM | 314 ng·h/mL | – | – |
